“Also recorded” adds a separate entry of the source. Like-named read-outs stand apart in the source and are kept apart here. Where no end group is shown, it is not given here.
Tests used:
T cells = settings: cited from earlier work; for patients recognizing the peptide / immunogenicity / T-cell responses: Saeterdal et al., PNAS 2001; for immunogenicity / T-cell responses: tumour infiltrating Th cells, MSI+ tumours
[1] = test system: T-cells from PMBCs from healthy donors; test: T-cell proliferation after induction of T-cells with fsp2 (Example 5); format: cell-based, human; settings: one round of in vitro stimulation, FIG. 13
Experimental: A similar protocol to that set out in Example 4 was used to test the immunogenicity of fsp6 (SEQ ID NOs: 24) and fsp7 (SEQ ID NO: 123). Fsp2 (SEQ ID NO: 21; 10 μM) was used to induce T-cells from PMBCs isolated from fresh buffy coats from four healthy donors. At day 14 after induction, a T-cell proliferation assay was carried out as in Example 4, using fsp2 (SEQ ID NO: 21), fsp6 (SEQ ID NO: 24) and fsp7 (SEQ ID NO: 123) as test peptides. The T-cell proliferation results after one round of in vitro stimulation are presented as stimulation index (SI) in FIG. 13. […] It is also expected, in view of the results shown in FIGS. 11 and 12, that a peptide having the sequence of fsp6 (SEQ ID NO: […]) but having a C-to-G amino acid substitution corresponding to that in fsp2 is also immunogenic and is useful as a vaccine or treatment against cancer.

[2] = test system: T cells (PBMC) from healthy donors; test: T-cell proliferation (3H-thymidine, SI) after in vitro stimulation of PBMC with cocktail fsp2+fsp4 (Example 4); format: cell-based, human; design: T cell proliferation (stimulation index, SI): immunogenicity: dose or concentration left out as unconfirmed; settings: for T cell proliferation (stimulation index, SI): immunogenicity: first and second round of in vitro stimulation with cocktail of fsp2 and fsp4, four healthy donors, FIGS. 10-12; for relative immunogenicity: FIGS. 10 and 11, compared with fsp3 and fsp4
Experimental: Fresh buffy coats from four healthy donors were obtained from a blood bank.
Peripheral blood mononuclear cells (PBMC) isolated from fresh buffy coats from four healthy donors were counted and suspended in DC medium to 15*10^6 cells/ml, and subsequently diluted with DC-medium to 4*10^6 cells/ml (Table 6).
Four 24-well plates were used for each donor, with 4*10^6 cells per well (each well has a volume of 1 ml).
Peptide cocktail: Solution of peptides fsp2+fsp4, containing […] of each peptide. 40 μl peptide solution was added to each well.
The plates were incubated in a cell incubator for 14 days (37° C., 5% CO2). IL-2 and IL-7 were added on day 3. The cells were inspected daily.
Test peptides: fsp2+fsp4 (SEQ ID NOs: 21 and 23), fsp1 (SEQ ID NO: 20), fsp2 (SEQ ID NO: 21), fsp3 (SEQ ID NO: 22), fsp4 (SEQ ID NO: 23), fsp5 (SEQ ID NO: 19).
Negative controls: T cells, T cells+APC (without addition of test peptides)
Cells and reagents were added to plate wells (in triplicate) as described in Tables 8 and 9 below. The total volume added to each well was 0.20 ml. • T cells (PBMC): 50 000 cells/well (0.25*10^6 cells/ml) • APC: Irradiated (30 Gy, 8 minutes) autologous feeder cells: 50 000 cells/well • (fspx): 0.2 nmol peptide/well (each peptide), concentration: […] peptide. (fsp was dissolved in DMSO before dilution to correct concentration)
The plates were incubated in a cell incubator for 48 hours (37° C., 5% CO2).
After incubation for 48 hours, 20 μl 3H-tThymidine solution (5 Ci/ml) was added to each well and the plates were incubated for approximately 17 hours (37° C., 5% CO2).
After 17 hours the cells were harvested (Unifilters) and dried on the filters at 45° C. until completely dry. After covering the bottom of the Unifilters with adhesive covers (delivered with the Unifilters) 25 μl micro scintillation liquid was added to each well, the plate was covered with TopSeal and 3H-Thymidine uptake was measured as counts per minute (CPM) using a microplate scintillation counter.
The T cell proliferation results after the first round of in vitro stimulation with the cocktail of fsp2 and fsp4 peptides are presented as stimulation index (SI) in FIG. 10. SI=mean CPM (triplicates) of (T cells+APC+test peptide(s)) divided by mean CPM (triplicates) of (T cells+APC). SI>1 indicates an increase in T-cell proliferation and SI 2 is a clear sign of immunogenicity.
PBMCs harvested after the first in vitro stimulation were re-stimulated in vitro according to the protocol set out above, with 2×10^6 cells per well. T-cell proliferation was tested according to the protocol set out above.

[3] = test system: T-cells from PBMC bulk cultures of healthy donors; test: Peptide-specific T-cell proliferation after stimulation of PBMC with cocktail fsp2+fsp8+fsp9 (Example 7); format: cell-based, human; settings: FIGS. 16-18; for T-cell response to the peptide alone: after only one round of stimulation with the peptide mixture; for T-cell response: three donors
Experimental: PBMCs isolated from buffy coats from four healthy donors (obtained from a blood bank) were suspended in complete CellGro DC medium to 15*10^6 cells/ml and diluted to 4*10^6 cells/ml (Table 14).
On day 1, 1 ml of PBMC suspension (4×10^6 cells/ml) from each donor was transferred to wells of 24-well plates (4*10^6 cells per well) and 60 μl of the peptide cocktail (fsp2+fsp8+fsp9) stock solution (166.67 μM/each peptide) was added to each well. The plates were incubated in a cell incubator for 14 days. IL-2 and IL-7 was added on day 3 (0.50 ml DC medium containing 60 U/ml IL-2 and 15 ng/ml IL-7). The cells were inspected daily and DC medium with cytokines (IL-2, IL7) was refreshed according to in house laboratory routines.
The in vitro stimulation of bulk cultures was repeated a further two times (i.e. a total of three stimulations) using PBMCs harvested after the preceding round of in vitro stimulation. Peptide specific T-cell proliferation was tested on day 14, after each round of stimulation, such that T-cell proliferation was tested on days 14, 28 and 42 after the first round of stimulation.
The cells from the bulk cultures were harvested (5 minutes at 300×g centrifugation) and re-suspended in DC medium (5 ml). An aliquot of the 5 ml resuspension was diluted 5 times and the T-cells counted in order to calculate the volume required to provide 5×10^4 cells per well for the proliferation assay. T-cells from each donor were transferred (triplicates) to wells of 96-well plates (5×10^4 cells per well) together with autologous, irradiated (30 Gy for 8 minutes) PBMCs (5×10^4 cells per well) and test peptide(s) (final concentration 10 μM/each peptide). Negative controls were wells without test peptide(s) and positive controls were wells with SEC-3 (0.1 μg/ml) without test peptide(s). The cells (plates) were incubated for 48 hours (37° C./5% CO2). After 48 hours, 20 μL of 3H-Thymidine (3.7×104 Bq) was added to the cells and incubation was continued for 17 hours. The cells were harvested (Unifilters using the Filtermate 196 Harvester) and dried on the filters for approx. 4.5 hours at 45° C. The cells were counted (CPM) by using the standard in-house laboratory protocol (TopCount Packard microplate scintillation beta counter and run programme).
Peptide-specific T-cell proliferation was measured after 14 days of stimulation of PBMC bulk cultures with a peptide cocktail containing fsp2, fsp8 and fsp9 (10 μM each peptide). Proliferation induced by each of the single peptides and the peptide cocktail was tested at a concentration of […] (each peptide).
Peptide-specific T-cell proliferation was measured after 14 days of re-stimulation of PBMC with a peptide cocktail containing fsp2, fsp8 and fsp9 ([…] each peptide). T-cell proliferation induced by each of the single peptides and the peptide cocktail was tested. The single peptides were tested at a concentration of 10 μM. The peptide cocktail was tested using two different amounts of each peptide in the cocktail, namely, a peptide cocktail containing […] each peptide and a peptide cocktail containing 3.33 μM each peptide.
Peptide-specific T-cell proliferation was measured after 14 days of a further re-stimulation of PBMC with a peptide cocktail containing fsp2, fsp8 and fsp9 ([…] each peptide). T-cell proliferation induced by each of the single peptides and the peptide cocktail was tested. The single peptides were tested at a concentration of 10 μM. […]

## SLVRLSSCVPVALMSAMTTSSSQ (listed as Homo sapiens) [p538, prior art peptide of mutTGFβR2]
T cells; patients having spontaneous MSI+ colon cancer
  patients recognizing the peptide: two of three
T cells; patients with HNPCC
  patients recognizing the peptide: all three
T cells
  immunogenicity / T-cell responses: highly immunogenic

## fsp7: peptide of −1a frameshifted TGFβR2; same sequence as fsp2 but truncated at the N-terminus (VRLSSCVPVALMSA; listed as Homo sapiens)
[1]
  relative immunogenicity: both fsp6 and fsp2 are much more immunogenic than fsp7

## AMTTSSSQKNITPAILTCC (listed as Homo sapiens) [p537, prior art peptide of mutTGFβR2]
T cells
  immunogenicity / T-cell responses: not immunogenic

## SSGVPVALMSAMTTSSSQKN (not fully specified) [fsp4, modified peptide of −1a frameshifted TGFβR2]
[2]
  T cell proliferation (stimulation index, SI): immunogenicity: immunogenic and can activate T-cells

## KTILKKAGIGMCVKVSSIFFINKQK (listed as Homo sapiens) [fsp9, peptide of −1a frameshifted TAF1β]
[3]
  T-cell response to the peptide alone: induces a T-cell response
  T-cell response: able to induce a T-cell response

## PKCIMKEKKKSLVRLSSCV (listed as Homo sapiens) [p541, prior art peptide of mutTGFβR2]
T cells
  immunogenicity / T-cell responses: able to induce T-cell responses in some patients
T cells; listed as p4541
  immunogenicity / T-cell responses: immunogenic

## KCIMKEKKSLVRLSSCVPVALMSA (listed as Homo sapiens) [fsp1, peptide of −1a frameshifted TGFβR2]
[2]
  relative immunogenicity: more immunogenic than peptides which do not comprise amino acids from the wild-type sequence of TGFβR2
  T cell proliferation (stimulation index, SI): immunogenicity: stimulated T-cells induced from PMBCs

## KCIMKEKKSLVRLSSCV (listed as Homo sapiens) [fsp6, peptide of −1a frameshifted TGFβR2]
[1]; day 14
  T-cell activation (SI): capable of activating T-cells
[1]
  relative immunogenicity: less immunogenic than fsp2

## SLVRLSSCV (listed as Homo sapiens) [p523, prior art peptide of mutTGFβR2]
T cells; EP1078000 FIG. 14, four rounds of stimulation of the T-cells
  immunogenicity: immunogenic
T cells; Linnebacher et al., FIG. 1
  immunogenicity: not immunogenic

## KGIMKEKKSLVRLSSCVPVALMSA (not fully specified) [fsp2, modified peptide of −1a frameshifted TGFβR2]
[2]
  relative immunogenicity: more immunogenic than peptides which do not comprise amino acids from the wild-type sequence of TGFβR2
  T cell proliferation (stimulation index, SI): immunogenicity: immunogenic and can activate T-cells
[1]
  relative immunogenicity: much more immunogenic than fsp7
[3]
  T-cell response: able to induce a T-cell response

## RNRIPAVLRTEGEPLHTPSVGMRET (listed as Homo sapiens) [fsp8, peptide of −1a frameshifted ASTE1]
[3]
  T-cell response to the peptide alone: induces a T-cell response
  T-cell response: able to induce a T-cell response

## SPKCIMKEKKSLVRLSSCVPVA (listed as Homo sapiens) [P540, prior art peptide of mutTGFβR2]
T cells
  immunogenicity / T-cell responses: able to induce T-cell responses in some patients; also recorded: immunogenic

Reference: patent US20230203130A1, “A PEPTIDE COCKTAIL” (Hubro Therapeutics AS, priority 2020, published 2023)
